Patent US20220387455A1, “TREATMENT OF MODERATE TO SEVERE INFLUENZA” (priority 2015, published 2022)
Counter-ions that a name gives are not always drawn. Like-named read-outs stand apart in the source and are kept apart here.

Assays:
[1] = Example 1: clinical safety of single inhaled doses in healthy adults; assay type: in vivo, human
Procedure: In a controlled clinical environment, 38 healthy adults received single doses of either 0.9% saline solution as placebo or up to 750 mg of ASA by inhalation (placebo n=10, ASA n=28).

[2] = in vivo
[3] = system: influenza virus infection; settings: for Time to alleviation of clinical influenza symptoms (T1), Mean: 800 mg LASAG (400 mg ASA) inhaled three times daily

## CC(=O)Oc1ccccc1C(=O)O [ASA, acetylsalicylic acid]
[1]; single inhaled doses up to 750 mg ASA
  Serious events or severe adverse effects: no serious events or severe adverse effects were observed
[1]; single inhaled doses up to 750 mg ASA as LASAG solution about 200 mg/ml, AKITA Apixneb
  Tolerability of administered doses: overall well tolerated
[1]; single inhaled doses up to 750 mg ASA, higher doses
  Effect on pulmonary function tests parameters: no effect on pulmonary function tests parameters

## CC(=O)Oc1ccccc1C(=O)O [LASAG, D,L-lysine acetylsalicylate glycine salt]
[2]; human
  Number of adverse events (AE): 41
  Number of patients affected by AE: 23
  Required medication due to AEs: About 56.1%
  Share of all adverse events (AE): 49.4%
  Share of group patients affected by AE: 41.1%
[2]
  Death or other significant adverse events: no case of death or other significant adverse events
  Difference to placebo with regard to tolerability: no significant differences
[3]; CSS ≥14, per protocol set
  Time to alleviation of clinical influenza symptoms (T1), Max.: 67.4 h
  Time to alleviation of clinical influenza symptoms (T1), Min.: 9.8 h
  Time to alleviation of clinical influenza symptoms (T1), Q1: 23.5 h
  Time to alleviation of clinical influenza symptoms (T1), Q3: 52.4 h
  Time to alleviation of clinical influenza symptoms (T1), Mean: 38.3 h
[3]; CSS ≥14, per protocol set, 800 mg LASAG inhaled three times daily
  Time to alleviation of clinical influenza symptoms (T1), Median: 27.8 h
[3]; CSS ≥17, per protocol set
  Time to alleviation of clinical influenza symptoms (T1), Max.: 66.9 h
  Time to alleviation of clinical influenza symptoms (T1), Median: 47.0 h
  Time to alleviation of clinical influenza symptoms (T1), Min.: 23.5 h
  Time to alleviation of clinical influenza symptoms (T1), Q1: 27.8 h
  Time to alleviation of clinical influenza symptoms (T1), Q3: 62.1 h
  Time to alleviation of clinical influenza symptoms (T1), Mean: 44.7 h
[3]; first patient group with CSS (log rank p 0.0313), placebo 51.6 h
  Time to alleviation of influenza symptoms T1: 38.3 h
[3]; human, in vivo
  Difference to placebo in time required for alleviation of clinical influenza symptoms: no significant difference
  Recovery by baseline corrected daily activity score (DAS): better recovery than the placebo group
[3]; patients with CSS, assuming start with the morning inhalation, placebo about 9
  Number of inhalations after which patients were alleviated: about 6 inhalations
[3]; second patient group with CSS (log rank p 0.0152), placebo 71.5 h
  Time to alleviation of influenza symptoms T1: 44.7 h
